From the supplement of paper PMC12137928
Counter-ions that a name gives are not always drawn.

Test system: HCT116
Details: 72 h
In short: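 In 1536-well plates, 250 HCT116 cells per well were seeded and left for 5 h to attach. Luminescence from CellTiter-Glo was set against vehicle (0%) and positive control (-100%), and pattern correction was applied. IC50 and maximal efficacy come from four-parameter Hill fitting.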

IC50 cell viability (ICRF193 0 nM) [µM] | IC50 cell viability (ICRF193 200 nM) [µM] | Structure (SMILES)
> 45.8 | > 45.8 | CN1C(=O)CC(C)(c2ccccc2)C1=O (stereo not drawn) [Methsuximide]
> 45.8 | > 45.8 | CN1C(CCl)Nc2cc(Cl)c(S(N)(=O)=O)cc2S1(=O)=O (stereo not drawn) [Methyclothiazide]
> 45.8 | > 45.8 | COC(=O)CCC(=O)CN [Methyl delta-aminolevulinate hydrochloride]
> 45.8 | > 45.8 | COC(=O)c1cccnc1 [Methyl nicotinate]
> 45.8 | > 45.8 | COC(=O)c1ccccc1O [Methyl salicylate]
> 45.8 | > 45.8 | C[C@](N)(Cc1ccc(O)c(O)c1)C(=O)O [Methyldopa]
> 45.8 | > 45.8 | COC(=O)c1ccc(O)cc1 [Methylparaben]
> 45.8 | > 45.8 | CC1CCN(CCCC(=O)c2ccc(F)cc2)CC1 [Methylperone]
> 45.8 | > 45.8 | CCC(=O)O[C@]1(C(=O)COC(C)=O)CC[C@H]2[C@@H]3C[C@H](C)C4=CC(=O)C=C[C@]4(C)[C@H]3[C@@H](O)C[C@@]21C [Methylprednisolone aceponate]
> 45.8 | > 45.8 | CC(=O)OCC(=O)[C@@]1(O)CC[C@H]2[C@@H]3C[C@H](C)C4=CC(=O)C=C[C@]4(C)[C@H]3[C@@H](O)C[C@@]21C [Methylprednisolone acetate]
> 45.8 | > 45.8 | C[C@H]1C[C@@H]2[C@H]([C@@H](O)C[C@@]3(C)[C@H]2CC[C@]3(O)C(=O)CO)[C@@]2(C)C=CC(=O)C=C12 [Methylprednisolone]
> 45.8 | > 45.8 | Cc1cc2c(cc1S(N)(=O)=O)S(=O)(=O)CCC2 [Meticrane]
> 45.8 | > 45.8 | CC(=O)Oc1c(C)cc(OCC(O)CNC(C)C)c(C)c1C (stereo not drawn) [Metipranolol]
> 45.8 | > 45.8 | CCN(CC)CCNC(=O)c1cc(Cl)c(N)cc1OC [Metoclopramide]
> 45.8 | > 45.8 | COc1ccc2cc1Oc1cc3c(cc1OC)CC[N+](C)(C)[C@H]3Cc1ccc(cc1)Oc1c(OC)c(OC)cc3c1[C@@H](C2)[N+](C)(C)CC3 [Metocurine iodide]
> 45.8 | > 45.8 | Cc1ccccc1N1C(=O)c2cc(S(N)(=O)=O)c(Cl)cc2NC1C (stereo not drawn) [Metolazone]
> 45.8 | > 45.8 | COCCc1ccc(OCC(O)CNC(C)C)cc1 (stereo not drawn) [Metoprolol tartrate]
> 45.8 | > 45.8 | CC(=O)Nc1c(I)c(C(=O)N[C@H]2C(O)O[C@H](CO)[C@@H](O)[C@@H]2O)c(I)c(N(C)C(C)=O)c1I (stereo partly drawn) [Metrizamide]
> 45.8 | > 45.8 | CC(=O)Nc1c(I)c(C(=O)O)c(I)c(N(C)C(C)=O)c1I [Metrizoate sodium]
> 45.8 | > 45.8 | Cc1ncc([N+](=O)[O-])n1CCO [Metronidazole]
> 45.8 | > 45.8 | CC(C)(C(=O)c1cccnc1)c1cccnc1 [Metyrapone]
> 45.8 | > 45.8 | C[C@](N)(Cc1ccc(O)cc1)C(=O)O [Metyrosine]
> 45.8 | > 45.8 | Cc1cccc(C)c1OCC(C)N (stereo not drawn) [Mexiletene hydrochloride]
> 45.8 | > 45.8 | CC1(C)S[C@@H]2[C@H](NC(=O)[C@H](NC(=O)N3CCN(S(C)(=O)=O)C3=O)c3ccccc3)C(=O)N2[C@H]1C(=O)O [Mezlocillin Sodium]
> 45.8 | > 45.8 | CCCCCOc1ccc(-c2cc(-c3ccc(C(=O)N[C@H]4C[C@@H](O)[C@@H](O)NC(=O)[C@@H]5[C@@H](O)[C@@H](C)CN5C(=O)[C@H]([C@H](O)CC(N)=O)NC(=O)[C@H]([C@H](O)[C@@H](O)c5ccc(O)c(OS(=O)(=O)O)c5)NC(=O)[C@@H]5C[C@@H](O)CN5C(=O)[C@H]([C@@H](C)O)NC4=O)cc3)no2)cc1 [Micafunginsodium]
> 45.8 | > 45.8 | CNC[C@@H]1CC[C@@H](N)[C@@H](O[C@H]2[C@H](O)[C@@H](O[C@H]3OC[C@](C)(O)[C@H](NC)[C@H]3O)[C@H](N)C[C@@H]2N)O1 [Micronomicin sulfate]
> 45.8 | > 45.8 | CCC(=O)O[C@@H]1CC(=O)O[C@H](C)C/C=C/C=C/[C@H](OC(C)=O)[C@H](C)C[C@H](CC=O)[C@H](O[C@@H]2O[C@H](C)[C@@H](O[C@H]3C[C@@](C)(OC(C)=O)[C@@H](OC(=O)CC)[C@H](C)O3)[C@H](N(C)C)[C@H]2O)[C@H]1OC [Midecamycin Acetate]

IC50 cell viability (ICRF193 0 nM) [µM] | IC50 cell viability (ICRF193 200 nM) [µM] | Structure (SMILES)
> 45.8 | > 45.8 | CCC(=O)O[C@@H]1CC(=O)O[C@H](C)C/C=C/C=C/[C@H](O)[C@H](C)C[C@H](CC=O)[C@H](O[C@@H]2O[C@H](C)[C@@H](O[C@H]3C[C@@](C)(O)[C@@H](OC(=O)CC)[C@H](C)O3)[C@H](N(C)C)[C@H]2O)[C@H]1OC [Midecamycin]
> 45.8 | > 45.8 | COc1ccc(OC)c(C(O)CNC(=O)CN)c1 (stereo not drawn) [Midodrine hydrochloride]
> 45.8 | > 45.8 | CC#C[C@]1(O)CC[C@H]2[C@@H]3CCC4=CC(=O)CCC4=C3[C@@H](c3ccc(N(C)C)cc3)C[C@@]21C [Mifepristone]
> 45.8 | > 45.8 | OCCN1C[C@H](O)[C@@H](O)[C@H](O)[C@H]1CO [Miglitol]
> 45.8 | > 45.8 | CCCCN1C[C@H](O)[C@@H](O)[C@H](O)[C@H]1CO [Miglustat]
> 45.8 | > 45.8 | CCN(CC)C(=O)C1(c2ccccc2)CC1CN (stereo not drawn) [Milnacipran hydrochloride]
> 45.8 | > 45.8 | Cc1[nH]c(=O)c(C#N)cc1-c1ccncc1 [Milrinone]
> 45.8 | > 45.8 | CCCCCCCCCCCCCCCCOP(=O)([O-])OCC[N+](C)(C)C [Miltefosine]
> 45.8 | > 45.8 | CN(C)c1ccc(O)c2c1C[C@H]1C[C@H]3[C@H](N(C)C)C(O)=C(C(N)=O)C(=O)[C@@]3(O)C(O)=C1C2=O [Minocycline hydrochloride]
> 45.8 | > 45.8 | O=P(O)(O)C(O)(Cc1cnc2ccccn12)P(=O)(O)O [Minodronic acid]
> 45.8 | > 45.8 | Nc1cc(N2CCCCC2)nc(N)[n+]1[O-] [Minoxidil]
> 45.8 | > 45.8 | Nc1nc(CC(=O)Nc2ccc(CCNC[C@H](O)c3ccccc3)cc2)cs1 [Mirabegron]
> 45.8 | > 45.8 | CN1CCN2c3ncccc3Cc3ccccc3C2C1 (stereo not drawn) [Mirtazapine]
> 45.8 | > 45.8 | CO[C@@]12[C@H](COC(N)=O)C3=C(C(=O)C(C)=C(N)C3=O)N1C[C@@H]1N[C@@H]12 [Mitomycin C]
> 45.8 | > 45.8 | Clc1ccc(C(c2ccccc2Cl)C(Cl)Cl)cc1 (stereo not drawn) [Mitotane]
> 45.8 | > 45.8 | CN(c1nccc(=O)[nH]1)C1CCN(c2nc3ccccc3n2Cc2ccc(F)cc2)CC1 [Mizolastine]
> 45.8 | > 45.8 | NC(=O)c1ncn([C@@H]2O[C@H](CO)[C@@H](O)[C@H]2O)c1O [Mizoribine]
> 45.8 | > 45.8 | O=C(NCCN1CCOCC1)c1ccc(Cl)cc1 [Moclobemide]
> 45.8 | > 45.8 | CCOC(=O)[C@H](CCc1ccccc1)N[C@@H](C)C(=O)N1Cc2cc(OC)c(OC)cc2C[C@H]1C(=O)O [Moexipril hydrochloride]
> 45.8 | > 45.8 | COc1ccc(-c2noc(CC(=O)O)c2-c2ccc(OC)cc2)cc1 [Mofezolac]
> 45.8 | > 45.8 | CCc1c(C)[nH]c2c1C(=O)C(CN1CCOCC1)CC2 (stereo not drawn) [Molindone hydrochloride]
> 45.8 | > 45.8 | CCOC(=O)[N-]c1c[n+](N2CCOCC2)no1 [Molsidomine]
> 45.8 | > 45.8 | Oc1ccc(OCc2ccccc2)cc1 [Monobenzone]
> 45.8 | > 45.8 | CC(C)(O)c1ccccc1CC[C@@H](SCC1(CC(=O)O)CC1)c1cccc(/C=C/c2ccc3ccc(Cl)cc3n2)c1 [Montelukast sodium]
> 45.8 | > 45.8 | Cc1ccc(C2(O)CCN(CCCC(=O)c3ccc(F)cc3)CC2)cc1 [Moperone]
> 45.8 | > 45.8 | Cc1ccsc1/C=C/C1=NCCCN1C [Morantel tartrate]

Structure (SMILES) | IC50 cell viability (ICRF193 0 nM) [µM] | IC50 cell viability (ICRF193 200 nM) [µM]
C[N+]1(C)[C@@H]2CC[C@H]1C[C@@H](OC(=O)C(CO)c1ccccc1)C2 (stereo partly drawn) [Methylatropine nitrate] | > 45.8 | > 45.8
C[N@+]1(CC2CC2)CC[C@]23c4c5ccc(O)c4O[C@H]2C(=O)CC[C@@]3(O)[C@H]1C5 [Methylnaltrexone Bromide] | > 45.8 | > 45.8
CC[C@@H](CO)NC(=O)[C@@H]1C=C2c3cccc4c3c(cn4C)C[C@H]2N(C)C1 [Methysergide] | > 45.8 | > 45.8
COC(=O)c1cncn1C(C)c1ccccc1 (stereo not drawn) [Metomidate hydrochloride] | > 45.8 | > 45.8
CC1COC2(c3ccccc3Cl)c3cc(Cl)ccc3NC(=O)CN12 (stereo not drawn) [Mexazolam] | > 45.8 | > 45.8
C[C@@H]1CC2=CC(=O)CC[C@@H]2[C@H]2CC[C@@]3(C)[C@@H](CC[C@]3(C)O)[C@@H]21 [Mibolerone] | > 45.8 | > 45.8
